Calls of active or inactive are those of the source. The rule behind the calls is not given here.
Target: Ubiquitin carboxyl-terminal hydrolase 8 (Homo sapiens) (UniProt P40818)
Assay: Ubiquitin-specific protease 8 inhibitors, concentration-effect, biochemical, validation of initial actives (AID 1645862);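 note: potency reflects inhibition of USP8 cleavage of a ubiquitin rhodamine substrate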
Details: recombinant USP8 deubiquitinase activity assay

Ubiquitin carboxyl-terminal hydrolase 8 (Homo sapiens), sequence (P40818 whole entry, looked up): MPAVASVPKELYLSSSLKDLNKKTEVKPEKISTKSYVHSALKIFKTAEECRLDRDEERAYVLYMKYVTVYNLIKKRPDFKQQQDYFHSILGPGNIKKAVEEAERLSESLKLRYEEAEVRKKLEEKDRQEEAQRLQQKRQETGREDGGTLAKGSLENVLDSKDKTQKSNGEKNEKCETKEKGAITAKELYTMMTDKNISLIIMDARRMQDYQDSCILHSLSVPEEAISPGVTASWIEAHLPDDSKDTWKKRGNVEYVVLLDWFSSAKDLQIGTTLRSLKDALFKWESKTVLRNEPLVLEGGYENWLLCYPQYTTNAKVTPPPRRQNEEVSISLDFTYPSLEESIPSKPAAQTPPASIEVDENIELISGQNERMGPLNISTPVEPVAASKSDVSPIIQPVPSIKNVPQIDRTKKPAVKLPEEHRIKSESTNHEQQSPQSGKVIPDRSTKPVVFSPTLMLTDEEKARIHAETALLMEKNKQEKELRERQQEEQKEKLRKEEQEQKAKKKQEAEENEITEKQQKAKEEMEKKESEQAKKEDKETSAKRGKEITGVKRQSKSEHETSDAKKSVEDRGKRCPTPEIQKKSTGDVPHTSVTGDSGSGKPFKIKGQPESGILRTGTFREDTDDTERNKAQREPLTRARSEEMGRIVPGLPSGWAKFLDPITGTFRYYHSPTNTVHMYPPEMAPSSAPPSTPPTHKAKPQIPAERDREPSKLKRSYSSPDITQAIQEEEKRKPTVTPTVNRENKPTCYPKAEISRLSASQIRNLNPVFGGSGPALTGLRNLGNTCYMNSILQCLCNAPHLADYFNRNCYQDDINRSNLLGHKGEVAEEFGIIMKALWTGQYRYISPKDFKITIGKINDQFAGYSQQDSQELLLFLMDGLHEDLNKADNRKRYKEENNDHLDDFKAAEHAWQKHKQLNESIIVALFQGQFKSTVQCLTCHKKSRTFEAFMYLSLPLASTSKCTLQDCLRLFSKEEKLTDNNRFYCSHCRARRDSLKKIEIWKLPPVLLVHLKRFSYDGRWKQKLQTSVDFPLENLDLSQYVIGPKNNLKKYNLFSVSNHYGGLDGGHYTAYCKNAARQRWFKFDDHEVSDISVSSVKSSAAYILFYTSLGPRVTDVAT

IC50 | SMILES
> 40 µM (inactive) | CCOC(=O)N1CCN(C(=O)c2ccc(CS(=O)c3ccccc3Cl)o2)CC1 (centres undefined)
> 40 µM (inactive) | O=C(c1ccc2occc2c1)N1CCC(S(=O)(=O)c2ccc(-c3ccco3)cc2)CC1
> 40 µM (inactive) | N#Cc1ccc(NC(=O)Nc2cccn(Cc3ccccc3F)c2=O)cc1
23.4 µM | Cc1cccc(C(=O)Nc2cccc(SC(C(=O)Nc3ccc(Cl)c(C(=O)O)c3)c3ccccc3)c2)c1 (centres undefined)
> 40 µM (inactive) | O=C(Cn1c(=O)c2ccccc2n(CC(=O)Nc2cccc(F)c2)c1=O)NCCc1ccccc1
> 40 µM (inactive) | NS(=O)(=O)c1cccc(NC(=O)/C=C/c2cn(-c3ccccc3)nc2-c2cccc([N+](=O)[O-])c2)c1
> 40 µM (inactive) | COc1ccc2nc(N3CC(C(=O)Nc4ccc(C(N)=O)cc4)C3)sc2c1
23.8 µM | Cc1cc(C(F)(F)F)n2nc(C3CCN(C(=O)c4cnn(C)c4C)C3)cc2n1 (centres undefined)
> 40 µM (inactive) | Cc1cc(C)c2nc3c(cc2c1)CN(Cc1ccco1)C(=O)O3
> 40 µM (inactive) | Cc1ccc2c(c1)N=C(c1ccc([N+](=O)[O-])cc1)CO2
> 40 µM (inactive) | COc1cc(Cl)c(NC(=O)c2cc(-c3ccccn3)n[nH]2)c(OC)c1
> 40 µM (inactive) | Cc1ccc(NC(=O)c2nnn(CC(=O)Nc3cccc(C)c3C)c2N)cc1C
> 40 µM (inactive) | Cc1ccccc1NC(=O)Nc1ccccc1OCc1cc(=O)n2cccc(C)c2n1
28.1 µM | CCOc1ccc(-n2c(SCC(=O)Nc3ccc(C)cc3)nnc2-c2c[nH]c3ccccc23)cc1
> 40 µM (inactive) | N#Cc1cccc(NC(=O)COC(=O)c2n[nH]c3ccccc23)c1
> 40 µM (inactive) | COCCCNC(=O)c1ccc(Cn2c(=O)c3ccccc3n(CC(=O)Nc3ccc4c(c3)OCCO4)c2=O)cc1
> 40 µM (inactive) | Cc1ccnc(NS(=O)(=O)c2ccc(NC(=O)c3ccc(S(=O)(=O)N(C)Cc4ccccc4)cc3)cc2)n1
17.7 µM | CC/C=C\C/C=C\C/C=C\CCCCCCCC(=O)O
> 40 µM (inactive) | CCc1cccc(CC)c1NC(=O)COC(=O)c1cc2cccc(OC)c2oc1=O
22.9 µM | CC(C)[C@H]1CC[C@@]2(CO2)[C@H]2C(=O)OCC(C(=O)O)=C[C@H]12
> 40 µM (inactive) | O=C(Nc1ccc2snnc2c1)Nc1ccc(F)cc1F
> 40 µM (inactive) | COc1ccc(Cl)cc1NC(=O)Cn1c(=O)n(CCCCC(=O)NCCc2ccccc2)c(=O)c2ccccc21
> 40 µM (inactive) | COc1ccc(Cn2c(=O)[nH]c3cc(C(=O)NCCCN4CCN(c5cccc(Cl)c5)CC4)ccc3c2=O)cc1

IC50 | SMILES
2.18 µM | Cc1sc2ccn(C)c(=O)c2c1C(=O)NC1CCCC1
> 40 µM (inactive) | O=C(c1cnc2ccccc2n1)N1CCC(S(=O)(=O)c2ccc(-c3ccco3)cc2)CC1
> 40 µM (inactive) | CCOc1ccc(C2/C(=C(\O)c3ccccc3)C(=O)C(=O)N2c2nc3ccc(F)cc3s2)cc1 (centres undefined)
> 40 µM (inactive) | CCOc1ccc(-c2nnc(NC(=O)C3CCN(S(=O)(=O)c4ccc5c(c4)CCC5)CC3)o2)cc1
> 40 µM (inactive) | CCOc1cccc(-c2noc(-c3nn(-c4ccccc4)ccc3=O)n2)c1
14 µM | O=C1c2ccccc2-c2nnc(-c3ccncc3)cc21
> 40 µM (inactive) | CN(C)c1ccc(CNC(=O)c2nnc(C(=O)Nc3ccccc3)s2)cc1
> 40 µM (inactive) | CC(C)=CCc1c(O)cc2c(c1C)OC(=O)c1c(C)c(Cl)c(O)c(CO)c1O2
> 40 µM (inactive) | O=C(Nc1cccc(Cl)c1)c1cc(-c2cccnc2)n[nH]1
> 40 µM (inactive) | Cc1ccc(-n2nnnc2-c2cnc3cc(Cl)ccc3c2N)cc1
> 40 µM (inactive) | CCc1ccccc1NC(=O)Cn1c(=O)n(CC(=O)NCc2ccccc2Cl)c(=O)c2sccc21
> 40 µM (inactive) | Cn1c(=O)n([C@@H](Cc2ccccc2)C(=O)N[C@@H](C(=O)O)c2ccc(O)cc2)c(=O)c2ccccc21
> 40 µM (inactive) | O=C(CCCn1c(=O)c2sccc2n(CC(=O)NCCC2=CCCCC2)c1=O)NCc1ccc2c(c1)OCO2
> 40 µM (inactive) | Cc1ccc(NC(=O)Cn2c(=O)n(CC(=O)NCCc3ccccc3)c(=O)c3sccc32)cc1C
> 40 µM (inactive) | COc1ccccc1NC(=O)CSC1=NC2(CCCCC2)Nc2ccccc21
> 40 µM (inactive) | Cc1cccc(NC(=O)c2cc(-c3ccc(C)c(C)c3O)n[nH]2)c1
> 40 µM (inactive) | Cc1cccn2c(=O)c3cc(C#N)c(=O)n(-c4cccc(C(F)(F)F)c4)c3nc12
> 40 µM (inactive) | Cc1ccc(NC(=O)Cn2cnc3c(c(C)c(C)n3-c3ccccc3)c2=O)c(C)c1
> 40 µM (inactive) | CS(=O)(=O)c1cccc(-c2nnc(NC(=O)c3ccc(Cc4ccccc4)cc3)o2)c1
> 40 µM (inactive) | CCOC(=O)c1ccc(NC(=O)Cn2c(=O)n(-c3ccc(CC(=O)NCc4ccco4)cc3)c(=O)c3ccccc32)cc1
> 40 µM (inactive) | Cn1c(CCNC(=O)c2[nH]nc3c2CCc2ccccc2-3)nc2ccccc21
> 40 µM (inactive) | COc1ccc(CNc2ccc(C(=O)OCc3ccccc3F)cc2S(=O)(=O)Nc2cccc(OC)c2)cc1
> 40 µM (inactive) | Cc1ccc(-c2cnc(C3CC3)o2)cc1S(=O)(=O)Nc1ccc(F)c(Cl)c1

IC50 | SMILES
9.1 µM | Cc1ccc(-c2nc(NC(=O)COc3ccc(Cl)cc3)no2)cc1
> 40 µM (inactive) | COc1ccc(OC)c(NC(=O)c2cc(Cl)ccc2OC)c1
> 40 µM (inactive) | Cc1cccc(N2CCN(C(=O)c3nc4cccnc4n(C)c3=O)CC2)c1C
2.09 µM | C=C1C=C(CCC(=O)O)C(=O)OC1/C=C/C=C/C (centres undefined)
> 40 µM (inactive) | O=C(Cn1cnc(-c2noc(-c3ccc(F)cc3)n2)c1)Nc1ccccc1F
> 40 µM (inactive) | COc1ccc(NC(=O)Cn2c(=O)n(CCCCC(=O)NCc3ccco3)c(=O)c3ccccc32)cc1Cl
> 40 µM (inactive) | O=C(CN1C(=O)c2cccc3cccc1c23)NCCSCc1ccc(Cl)c(Cl)c1
> 40 µM (inactive) | O=C(CCCC(=O)N(c1ccc2c(c1)OCCO2)C(C(=O)NC1CCCCC1)c1ccc(F)cc1)Nc1ccccn1 (centres undefined)
> 40 µM (inactive) | Cc1ccc(Nc2nc(O)c(CC(=O)Nc3ccc(C)cc3C)s2)cc1
> 40 µM (inactive) | COc1ccc(CC(=O)Nc2ccccc2-c2nc3ccccc3[nH]2)cc1OC
10.7 µM | O=C(Nc1cc(S(=O)(=O)Nc2ccc(Cl)cc2)ccc1O)c1cc2c(s1)CCC2
> 40 µM (inactive) | COc1ccccc1NC(=O)C1=C(C)Nc2nc(SCc3ccccc3F)nn2C1c1ccccn1 (centres undefined)
> 40 µM (inactive) | O=C(CSc1nnc2c3ccccc3nc(-c3ccco3)n12)N1CCCc2ccccc21
> 40 µM (inactive) | O=C(Cn1c(=O)[nH]c2c(-c3ccc(F)cc3)c[nH]c2c1=O)NCc1ccc(F)cc1
> 40 µM (inactive) | O=C(CC1C(=O)Nc2nc3ccccc3n21)Nc1cccc2ccccc12 (centres undefined)
> 40 µM (inactive) | CC(C)n1cc(CN2CCC(C(=O)Nc3cccc(-c4cccc(Cl)c4)c3)CC2)cn1
> 40 µM (inactive) | FC(F)(F)c1ccc(Nc2nnnc3ccccc23)cc1
> 40 µM (inactive) | CSCCC(NC(=O)c1ccccc1)c1nc2ccccc2n1CC(=O)Nc1ccccc1 (centres undefined)
> 40 µM (inactive) | Cc1nn(-c2ccccc2)c2c1N=C1C(Cl)=CC(Cl)=CN1C21C(=O)Nc2ccccc21 (centres undefined)
1.29 µM | CCOC(=O)C1CCN(Cc2cc(=O)oc3cc(O)c(O)cc23)CC1
> 40 µM (inactive) | CC(C)c1ccc(NC(=O)COC(=O)c2ccc(NS(=O)(=O)c3ccc4c(c3)OCCO4)cc2)cc1
20.6 µM | COc1ccc(OC)c(-c2cn3ccn(-c4ccc(F)c(Cl)c4)c(=O)c3n2)c1
> 40 µM (inactive) | O=C(c1ccccc1CN1CCOCC1)N1CCOCC2(C1)CN(c1ccc(F)cc1)C(=O)O2 (centres undefined)

IC50 | SMILES
37.2 µM | CCCn1cc(C(=O)N2CCC3(CC2)CC2(CO3)Nc3ccccc3-n3cccc32)c(C)n1 (centres undefined)
> 40 µM (inactive) | O=C(CSc1oc(-c2ccc(F)cc2)nc1S(=O)(=O)c1ccc(F)cc1)Nc1ccc(F)cc1
> 40 µM (inactive) | O=C(COC(=O)c1ccc(NS(=O)(=O)c2ccc(F)c(F)c2)cc1)Nc1ccc(OCc2ccccc2)cc1
2.01 µM | O=c1cc(-c2ccc(O)c(O)c2)oc2cc(O[C@@H]3O[C@H](CO)[C@@H](O)[C@H](O)[C@H]3O)cc(O)c12
> 40 µM (inactive) | Cc1cc(OCC(=O)Nc2ccc3c(c2)NC(=O)CO3)ccc1Cl
> 40 µM (inactive) | O=C(Nc1cccc2ccccc12)N1CCC(c2nc3c(nnn3Cc3ccc(F)cc3)c(=O)[nH]2)CC1
> 40 µM (inactive) | O=C(COc1ccccc1)Nc1ccc(-c2nc3cnccc3o2)c(O)c1
> 40 µM (inactive) | Cc1cc(OCC(=O)Nc2ccccc2C(=O)Nc2ccccc2)ccc1Cl
> 40 µM (inactive) | CCOc1ccc(NC(=O)Cn2c(=O)n(CCC(=O)NCc3ccco3)c(=O)c3ccccc32)cc1
> 40 µM (inactive) | Cc1ccc(NC(=O)CSc2ccc(NC(=O)c3ccc(C(=O)O)cc3C(=O)O)cc2)c(C)c1
> 40 µM (inactive) | Cc1cc(C)cc(NC(=O)C2CC(=O)Nc3nc4ccccc4n32)c1 (centres undefined)
> 40 µM (inactive) | Cc1ccc(C(=O)c2cn(CC(=O)Nc3ccc(F)c(F)c3)c3ccc(F)cc3c2=O)cc1
> 40 µM (inactive) | COc1ccc(NC(=O)c2[nH]nc3c2COc2ccccc2-3)c(OC)c1
> 40 µM (inactive) | COc1ccc(-c2n[nH]n3c2nc(=O)c2ccc(C(=O)NCc4ccco4)cc23)cc1
> 40 µM (inactive) | O=C(NC1CCCC1)C1CC(=O)N(c2cccc(-c3noc(-c4cccs4)n3)c2)C1 (centres undefined)
> 40 µM (inactive) | O=C(NCCc1nc2ccccc2n1Cc1ccccc1F)c1ccc(Cl)cc1
> 40 µM (inactive) | Cc1ccc(NC(=O)Cc2nnc3c(-c4nc(C5CC5)no4)cccn23)c(C)c1
> 40 µM (inactive) | N#Cc1cc(C(=O)c2cc(Cl)ccc2O)cn(-c2ccccn2)c1=O
> 40 µM (inactive) | Cc1cccc(NC(=O)CSc2nnc(-c3n[nH]c4c3CCC4)n2N)c1C
> 40 µM (inactive) | COc1cc(NC(=O)Cn2c(=O)n(-c3ccc(CC(=O)NCc4ccco4)cc3)c(=O)c3ccccc32)cc(OC)c1

Reference: PubChem BioAssay AID1645862 (Buhrlage Lab, Dana-Farber Cancer Institute and Novartis …, 2021)
